Target: SRPK1 (Homo sapiens)
Experiment: In vitro inhibition of SR protein kinase 1 by compound dissolved in 100% DMSO using 5''-[gamma-33P]-triphosphate

Structure (SMILES)	IC50
O=C(O)C1COc2cc3nc(-c4cccs4)c(-c4cccs4)nc3cc2O1 (stereo unspecified) [6,7-Di-thiophen-2-yl-2,3-dihydro-1,4-dioxa-5,8-diaza-anthracene-2-carboxylic acid]	950 nM
O=C(O)c1ccc2cc3nc(-c4cccs4)c(-c4cccs4)nc3cc2c1 [2,3-Di-thiophen-2-yl-benzo[g]quinoxaline-7-carboxylic acid]	40 nM
c1csc(-c2nc3cc4ccccc4cc3nc2-c2cccs2)c1 [2,3-Di-thiophen-2-yl-benzo[g]quinoxaline]	1360 nM
COC(=O)CCc1ccc(-c2nc3cc4ccccc4cc3nc2-c2ccc(CCC(=O)OC)s2)s1 [3-(5-{3-[5-(2-Methoxycarbonyl-ethyl)-thiophen-2-yl]-benzo[g]quinoxalin-2-yl}-thiophen-2-yl)-propionic acid methyl ester]	6130 nM
Oc1cc2nc(-c3cccs3)c(-c3cccs3)nc2cc1O [2,3-Di-thiophen-2-yl-quinoxaline-6,7-diol]	9610 nM
O=C(O)CCCc1ccc(-c2nc3cc4ccccc4cc3nc2-c2ccc(CCCC(=O)O)s2)s1 [4-(5-{3-[5-(3-Carboxy-propyl)-thiophen-2-yl]-benzo[g]quinoxalin-2-yl}-thiophen-2-yl)-butyric acid]	820 nM

Results, then the compound that gave them:

IC50	Structure (SMILES)
11800 nM	COC(=O)Cc1csc(-c2nc3cc4ccccc4cc3nc2-c2cc(CC(=O)OC)cs2)c1 [{5-[3-(4-Methoxycarbonylmethyl-thiophen-2-yl)-benzo[g]quinoxalin-2-yl]-thiophen-3-yl}-acetic acid methyl ester]
23400 nM	c1csc(-c2nc3cc4c(cc3nc2-c2cccs2)OCCO4)c1 [6,7-Di-thiophen-2-yl-2,3-dihydro-1,4-dioxa-5,8-diaza-anthracene]
870 nM	O=C(O)CCc1ccc(-c2nc3cc4ccccc4cc3nc2-c2ccc(CCC(=O)O)s2)s1 [3-(5-{3-[5-(2-Carboxy-ethyl)-thiophen-2-yl]-benzo[g]quinoxalin-2-yl}-thiophen-2-yl)-propionic acid]
16300 nM	COc1cc2nc(-c3cccs3)c(-c3cccs3)nc2cc1OC [6,7-Dimethoxy-2,3-di-thiophen-2-yl-quinoxaline]
1140 nM	COc1cc2nc3nc(-c4cccs4)c(-c4cccs4)nc3nc2cc1OC [7,8-Dimethoxy-2,3-di-thiophen-2-yl-pyrazino[2,3-b]quinoxaline]

From BindingDB's records for doi:10.1016/j.bmcl.2005.04.064 (Semmelweis University, 2005)
